Columns and labels:
[1] = Caco-2 cell permeability assay; type: in vitro ADME; details: human; for Papp at 90 min, 10 μM: Caco-2, Papp
Caco‐2 cells = test: Caco-2 cell permeability assay; type: in vitro ADME; details: Caco‐2, 10 μM
MLL4 complex = MLL4 complex (Homo sapiens, UniProt Q9UMN6); test: HotSpot Methyltransferase Profiling assay, MLL4 complex; type: biochemical
SETD2 = SETD2 (Homo sapiens, UniProt Q9BYW2); test: HotSpot Methyltransferase Profiling assay, SETD2; type: biochemical
PRDM9 = PRDM9 (Homo sapiens, UniProt Q9NQV7); test: HotSpot Methyltransferase Profiling assay, PRDM9; type: biochemical
Chain of PRDM9 (Q9NQV7 whole entry): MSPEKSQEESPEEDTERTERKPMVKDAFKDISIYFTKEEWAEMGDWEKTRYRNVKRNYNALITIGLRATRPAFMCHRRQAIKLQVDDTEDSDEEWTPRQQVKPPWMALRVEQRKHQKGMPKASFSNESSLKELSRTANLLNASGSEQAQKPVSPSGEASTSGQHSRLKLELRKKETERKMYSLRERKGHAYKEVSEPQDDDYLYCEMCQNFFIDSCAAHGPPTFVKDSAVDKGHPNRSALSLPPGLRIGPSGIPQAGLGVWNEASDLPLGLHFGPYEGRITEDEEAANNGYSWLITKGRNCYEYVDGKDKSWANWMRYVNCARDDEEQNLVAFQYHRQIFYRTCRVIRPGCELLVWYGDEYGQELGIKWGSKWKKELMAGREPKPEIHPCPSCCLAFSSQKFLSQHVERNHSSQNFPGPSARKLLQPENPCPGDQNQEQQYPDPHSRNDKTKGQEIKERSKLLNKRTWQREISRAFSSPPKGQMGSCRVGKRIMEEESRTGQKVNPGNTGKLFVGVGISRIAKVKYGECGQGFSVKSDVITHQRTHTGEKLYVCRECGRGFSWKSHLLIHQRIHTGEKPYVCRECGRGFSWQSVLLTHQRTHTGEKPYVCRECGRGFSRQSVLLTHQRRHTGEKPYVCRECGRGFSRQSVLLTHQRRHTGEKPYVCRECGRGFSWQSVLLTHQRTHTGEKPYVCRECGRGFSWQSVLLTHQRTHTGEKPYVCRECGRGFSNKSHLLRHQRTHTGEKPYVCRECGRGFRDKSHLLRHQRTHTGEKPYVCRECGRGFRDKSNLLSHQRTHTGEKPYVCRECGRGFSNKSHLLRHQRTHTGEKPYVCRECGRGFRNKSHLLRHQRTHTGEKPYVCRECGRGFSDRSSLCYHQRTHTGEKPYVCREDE

Chain of SETD2 (Q9BYW2 whole entry): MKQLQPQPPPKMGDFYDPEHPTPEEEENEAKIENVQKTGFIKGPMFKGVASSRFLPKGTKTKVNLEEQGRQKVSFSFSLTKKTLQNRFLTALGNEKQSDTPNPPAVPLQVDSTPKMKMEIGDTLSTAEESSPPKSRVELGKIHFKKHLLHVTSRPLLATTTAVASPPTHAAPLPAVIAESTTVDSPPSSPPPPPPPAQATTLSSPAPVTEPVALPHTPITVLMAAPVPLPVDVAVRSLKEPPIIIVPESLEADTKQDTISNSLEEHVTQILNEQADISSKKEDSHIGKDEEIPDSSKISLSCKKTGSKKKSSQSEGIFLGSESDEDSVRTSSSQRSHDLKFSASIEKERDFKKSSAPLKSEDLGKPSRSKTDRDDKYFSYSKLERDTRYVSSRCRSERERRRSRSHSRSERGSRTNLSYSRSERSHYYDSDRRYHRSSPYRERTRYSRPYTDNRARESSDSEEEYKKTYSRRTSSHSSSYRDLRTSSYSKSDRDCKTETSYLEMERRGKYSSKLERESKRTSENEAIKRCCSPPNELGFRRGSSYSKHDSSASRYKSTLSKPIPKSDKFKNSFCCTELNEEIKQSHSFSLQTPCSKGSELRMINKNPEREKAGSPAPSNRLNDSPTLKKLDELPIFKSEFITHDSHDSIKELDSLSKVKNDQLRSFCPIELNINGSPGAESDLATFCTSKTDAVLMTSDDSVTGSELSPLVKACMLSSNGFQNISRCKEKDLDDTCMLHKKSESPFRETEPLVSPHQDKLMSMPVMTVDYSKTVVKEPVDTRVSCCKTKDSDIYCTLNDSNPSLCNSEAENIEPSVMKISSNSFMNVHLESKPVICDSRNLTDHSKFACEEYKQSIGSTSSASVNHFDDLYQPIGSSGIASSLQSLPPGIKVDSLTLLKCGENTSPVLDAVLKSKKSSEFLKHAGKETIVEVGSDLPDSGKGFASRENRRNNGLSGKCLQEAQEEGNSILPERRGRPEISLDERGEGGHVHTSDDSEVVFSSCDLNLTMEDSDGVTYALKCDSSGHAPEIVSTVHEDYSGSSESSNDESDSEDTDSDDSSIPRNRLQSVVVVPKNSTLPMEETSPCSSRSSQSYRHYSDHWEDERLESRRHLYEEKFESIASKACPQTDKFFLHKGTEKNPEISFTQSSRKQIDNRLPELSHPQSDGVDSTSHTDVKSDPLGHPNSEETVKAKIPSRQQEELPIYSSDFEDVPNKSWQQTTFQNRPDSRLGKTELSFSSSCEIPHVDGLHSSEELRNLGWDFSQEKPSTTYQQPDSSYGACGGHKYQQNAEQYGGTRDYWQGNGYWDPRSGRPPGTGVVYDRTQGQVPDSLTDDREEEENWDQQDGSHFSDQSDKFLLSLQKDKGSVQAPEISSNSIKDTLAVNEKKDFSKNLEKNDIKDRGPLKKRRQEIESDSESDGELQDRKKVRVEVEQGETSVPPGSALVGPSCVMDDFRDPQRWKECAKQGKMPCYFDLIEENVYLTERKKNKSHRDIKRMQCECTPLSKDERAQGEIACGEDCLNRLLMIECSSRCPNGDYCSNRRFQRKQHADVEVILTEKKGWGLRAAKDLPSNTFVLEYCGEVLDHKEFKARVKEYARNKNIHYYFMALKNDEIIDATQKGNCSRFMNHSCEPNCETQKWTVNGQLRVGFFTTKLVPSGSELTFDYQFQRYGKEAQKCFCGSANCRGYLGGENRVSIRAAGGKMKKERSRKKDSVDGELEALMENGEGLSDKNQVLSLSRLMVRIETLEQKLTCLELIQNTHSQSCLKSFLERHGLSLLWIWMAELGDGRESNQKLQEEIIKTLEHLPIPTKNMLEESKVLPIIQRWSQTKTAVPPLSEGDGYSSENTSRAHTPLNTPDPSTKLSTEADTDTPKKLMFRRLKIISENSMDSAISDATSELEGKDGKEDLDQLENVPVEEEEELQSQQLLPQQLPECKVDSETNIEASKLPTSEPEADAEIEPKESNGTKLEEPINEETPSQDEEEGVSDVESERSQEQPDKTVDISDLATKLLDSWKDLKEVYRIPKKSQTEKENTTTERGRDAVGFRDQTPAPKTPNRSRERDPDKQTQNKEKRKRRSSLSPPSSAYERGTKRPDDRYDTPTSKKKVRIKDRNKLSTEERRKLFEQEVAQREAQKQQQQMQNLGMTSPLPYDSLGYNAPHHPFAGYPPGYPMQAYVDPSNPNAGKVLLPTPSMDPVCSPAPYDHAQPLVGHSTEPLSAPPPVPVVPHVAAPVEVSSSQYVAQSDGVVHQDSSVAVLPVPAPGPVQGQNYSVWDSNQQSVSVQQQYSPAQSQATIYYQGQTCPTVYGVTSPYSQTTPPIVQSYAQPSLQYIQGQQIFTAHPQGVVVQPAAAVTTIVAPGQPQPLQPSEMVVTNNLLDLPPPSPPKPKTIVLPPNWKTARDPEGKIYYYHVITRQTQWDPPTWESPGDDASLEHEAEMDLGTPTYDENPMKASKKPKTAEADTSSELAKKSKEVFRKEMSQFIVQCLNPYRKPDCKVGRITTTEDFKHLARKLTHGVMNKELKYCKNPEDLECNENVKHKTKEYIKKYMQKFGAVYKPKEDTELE
Chain of MLL4 complex (Q9UMN6 2490-2715): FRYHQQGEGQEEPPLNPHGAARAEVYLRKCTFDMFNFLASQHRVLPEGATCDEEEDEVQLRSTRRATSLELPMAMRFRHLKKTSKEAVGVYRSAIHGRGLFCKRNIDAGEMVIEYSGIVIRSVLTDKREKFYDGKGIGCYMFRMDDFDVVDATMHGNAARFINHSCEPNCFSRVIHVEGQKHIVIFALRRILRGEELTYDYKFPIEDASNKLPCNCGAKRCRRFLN
Chain of MLL4 complex (Q9C005 whole entry, further chain): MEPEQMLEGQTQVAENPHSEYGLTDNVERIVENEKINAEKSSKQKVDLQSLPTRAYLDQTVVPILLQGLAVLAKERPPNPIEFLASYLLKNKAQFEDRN
Chain of MLL4 complex (Q15291 whole entry, further chain): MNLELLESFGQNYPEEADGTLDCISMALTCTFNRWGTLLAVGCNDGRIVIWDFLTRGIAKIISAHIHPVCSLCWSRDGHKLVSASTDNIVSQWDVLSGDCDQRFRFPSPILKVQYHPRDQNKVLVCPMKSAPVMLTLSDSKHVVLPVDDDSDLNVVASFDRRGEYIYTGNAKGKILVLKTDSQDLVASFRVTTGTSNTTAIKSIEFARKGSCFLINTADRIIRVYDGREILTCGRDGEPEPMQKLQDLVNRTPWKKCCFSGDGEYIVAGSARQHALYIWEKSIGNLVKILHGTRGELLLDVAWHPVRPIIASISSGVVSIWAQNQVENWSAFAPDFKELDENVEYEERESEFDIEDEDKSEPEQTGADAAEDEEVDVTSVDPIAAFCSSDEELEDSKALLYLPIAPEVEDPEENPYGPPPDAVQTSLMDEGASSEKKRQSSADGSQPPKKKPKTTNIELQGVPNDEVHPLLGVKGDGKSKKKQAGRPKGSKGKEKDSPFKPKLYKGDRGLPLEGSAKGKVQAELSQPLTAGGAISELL
Chain of MLL4 complex (Q9UBL3 96-628, further chain): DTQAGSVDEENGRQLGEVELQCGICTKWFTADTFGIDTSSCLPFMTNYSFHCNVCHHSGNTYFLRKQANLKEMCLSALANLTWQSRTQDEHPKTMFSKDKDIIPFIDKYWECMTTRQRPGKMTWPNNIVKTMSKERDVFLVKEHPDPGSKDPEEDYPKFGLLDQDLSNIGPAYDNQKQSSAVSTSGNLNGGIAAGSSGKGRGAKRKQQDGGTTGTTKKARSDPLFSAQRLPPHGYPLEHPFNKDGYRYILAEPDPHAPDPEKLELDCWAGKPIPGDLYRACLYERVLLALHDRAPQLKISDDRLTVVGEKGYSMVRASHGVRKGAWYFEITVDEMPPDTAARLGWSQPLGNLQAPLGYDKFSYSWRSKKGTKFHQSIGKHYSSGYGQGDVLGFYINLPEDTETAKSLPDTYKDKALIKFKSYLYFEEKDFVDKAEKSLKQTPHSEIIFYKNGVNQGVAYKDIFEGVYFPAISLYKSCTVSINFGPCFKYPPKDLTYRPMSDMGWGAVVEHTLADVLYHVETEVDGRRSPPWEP

| Structure (SMILES) | efflux ratio at 90 min, 10 μM ([1]; Caco-2) | Papp at 90 min, 10 μM ([1]; Replicate 1, Direction A‐B) [×10⁻⁶ cm/s] | Papp at 90 min, 10 μM ([1]; Replicate 1, Direction B‐A) [×10⁻⁶ cm/s] | Papp at 90 min, 10 μM ([1]; Replicate 2, Direction A‐B) [×10⁻⁶ cm/s] | Papp at 90 min, 10 μM ([1]; Replicate 2, Direction B‐A) [×10⁻⁶ cm/s] | Papp(B−A)/Papp(A−B) (efflux ratio) (Caco‐2 cells) | IC50 (MLL4 complex) [µM] | IC50 (SETD2) [µM] | IC50 (PRDM9) [µM] |
| --- | --- | --- | --- | --- | --- | --- | --- | --- | --- |
| CC[C@H]1OC(=O)[C@H](C)[C@@H](O[C@H]2C[C@@](C)(OC)[C@@H](O)[C@H](C)O2)[C@H](C)[C@@H](O[C@@H]2O[C@H](C)C[C@H](N(C)C)[C@H]2O)[C@](C)(O)C[C@@H](C)C(=O)[C@H](C)[C@@H](O)[C@]1(C)O [Erythromycin] | 62.9 | 0.3 | 18.1 | 0.2 | 17.5 | – | – | – | – |
| COCCc1ccc(OCC(O)CNC(C)C)cc1 (stereo not shown) [Metoprolol] | – | 33.7 | 34.7 | 31.4 | 33.3 | 1.1 | – | – | – |
| Nc1ncnc2c1ncn2[C@@H]1O[C@H](CSCC[C@H](N)C(=O)O)[C@@H](O)[C@H]1O [SAH, S‐(5′‐adenosyl)‐ʟ‐homocysteine] | – | – | – | – | – | – | 2.11 | 7.39 | – |
| CN1C(=O)[C@@]23C[C@]4([C@]56C[C@@]78SS[C@@](CO)(C(=O)N7[C@H]5Nc5ccccc56)N(C)C8=O)c5ccccc5N[C@@H]4N2C(=O)[C@]1(CO)SS3 [chaetocin] | – | – | – | – | – | – | – | – | 3.98 |

From publication PMC8518639 (Chemmedchem, 2021)
